US6528093B1, “Sustained-release preparation” (Takeda Chemical Industries, Ltd., priority 1992, dated 2003)

Assay: Dissolution of peptide acetate in a dichloromethane solution of lactic acid-glycolic acid copolymer
Assay type: physicochemical
Details: 8.0 g dichloromethane

CCNC(=O)[C@@H]1CCCN1C(=O)[C@H](CCCNC(=N)N)NC(=O)[C@H](CC(C)C)NC(=O)[C@@H](CC(C)C)NC(=O)[C@H](Cc1ccc(O)cc1)NC(=O)[C@H](CO)NC(=O)[C@H](Cc1c[nH]c2ccccc12)NC(=O)[C@H](Cc1c[nH]cn1)NC(=O)[C@@H]1CCC(=O)N1 [Leuprorelin acetate]
dissolution in copolymer/dichloromethane solution (400 mg in 3.6 g lactic acid/glycolic acid=75/25 copolymer of Example 12 (GPC Mw 10,000, end-group Mn 4,300)): clear homogeneous solution
dissolution in copolymer/dichloromethane solution (400 mg in 3.6 g lactic acid/glycolic acid=75/25 copolymer, GPC Mw 18,000, end-group Mn 30,000 (RG752-15057)): could not be successfully dissolved
